Test results reported in patent US20240182445A1 (ONO PHARMACEUTICAL CO., LTD., priority 2019, published 2024).

Molecular target: T1, human TREK-1 (Homo sapiens, UniProt O95069)
T1 construct: expressed in transfected cells
T1 sequence (O95069 1-426): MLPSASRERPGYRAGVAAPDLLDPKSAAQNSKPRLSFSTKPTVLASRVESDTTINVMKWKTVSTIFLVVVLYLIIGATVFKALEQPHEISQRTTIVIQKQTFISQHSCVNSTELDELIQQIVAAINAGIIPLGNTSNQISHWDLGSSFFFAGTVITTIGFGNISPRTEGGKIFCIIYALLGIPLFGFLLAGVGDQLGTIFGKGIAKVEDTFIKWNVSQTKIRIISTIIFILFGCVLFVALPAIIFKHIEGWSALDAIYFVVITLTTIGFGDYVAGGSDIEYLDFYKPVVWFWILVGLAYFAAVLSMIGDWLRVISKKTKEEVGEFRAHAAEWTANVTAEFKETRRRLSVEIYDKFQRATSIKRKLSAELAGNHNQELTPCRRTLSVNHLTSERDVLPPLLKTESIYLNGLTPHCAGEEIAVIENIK
Test: TREK-1 Thallium (Tl+) flux assay, Method 1
Assay type: cell-based
Settings: for IC50: TREK-1 Thallium (Tl+) flux assay, Method 1; for inhibition at 30 µM: read-out: Tl^+ Assay % inhibition at 30 uM (Minus value indicates activation of TREK-1), CHO-K1 cells stably expressing human TREK-1, minus = activation
Method in brief: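 Readout: Thallos fluorescence ratio, taken 25 s post-thallium relative to the pre-thallium baseline average, then converted to % inhibition. Cells were CHO-K1 stably expressing human TREK-1, dye-loaded and exposed to test compound (vehicle 0.3% DMSO) for 10 min prior to thallium stimulation.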

IC50	inhibition at 30 µM	SMILES
4.85 µM	–	Cc1cc(OCc2ccccc2)ccc1NC(=O)c1c(Cl)cnn1CC1CN(C(=O)C2CCC2)CCO1 (centres unmarked) [Compound 424, N-(4-(benzyloxy)-2-methylphenyl)-4-chloro-1-((4-(cyclobutanecarbonyl)morpholin-2-yl)methyl)-1H-pyrazole-5-carboxamide]
5.21 µM	–	CC(=O)N1CCC(n2ncc(Cl)c2C(=O)Nc2ncc(-c3ccc(C(F)(F)F)cc3)cc2C)CC1 [Compound 427, 1-(1-acetylpiperidin-4-yl)-4-chloro-N-(3-methyl-5-(4-(trifluoromethyl)phenyl)pyridin-2-yl)-1H-pyrazole-5-carboxamide]
5.52 µM	–	Cc1cc(OCc2ccccc2)ccc1NC(=O)c1c(Cl)cnn1CC1CN(C(=O)CC(C)C)CCO1 (centres unmarked) [Compound 429, N-(4-(benzyloxy)-2-methylphenyl)-4-chloro-1-((4-(3-methylbutanoyl)morpholin-2-yl)methyl)-1H-pyrazole-5-carboxamide]
6.35 µM	–	Cc1cc(OCc2ccccc2)ccc1NC(=O)c1c(Cl)cnn1C1CCN(C(=O)OC(C)(C)C)CC1 [Compound 430, tert-butyl 4-(5-((4-(benzyloxy)-2-methylphenyl)carbamoyl)-4-chloro-1H-pyrazol-1-yl)piperidine-1-carboxylate]
6.4 µM	–	CCOc1ccc(-c2cnc(NC(=O)c3c(Cl)cnn3C3CCN(C(=O)OC(C)(C)C)CC3)c(C)c2)cc1 [Compound 431, tert-butyl 4-(4-chloro-5-((5-(4-ethoxyphenyl)-3-methylpyridin-2-yl)carbamoyl)-1H-pyrazol-1-yl)piperidine-1-carboxylate]
6.45 µM	–	Cc1cc(OCc2ccccc2)ccc1NC(=O)c1c(Cl)cnn1CC1CN(C(=O)C2CC2)CCO1 (centres unmarked) [Compound 432, N-(4-(benzyloxy)-2-methylphenyl)-4-chloro-1-((4-(cyclopropanecarbonyl)morpholin-2-yl)methyl)-1H-pyrazole-5-carboxamide]
6.89 µM	–	CC(=O)N1CC2(CC(n3ncc(Cl)c3C(=O)Nc3ccc(OCc4ccccc4)cc3C)C2)C1 [Compound 433, 1-(2-acetyl-2-azaspiro[3.3]heptan-6-yl)-N-(4-(benzyloxy)-2-methylphenyl)-4-chloro-1H-pyrazole-5-carboxamide]
7.43 µM	–	COc1ccc(-c2cnc(NC(=O)c3c(Cl)cnn3C3CCN(C(C)=O)CC3)c(C)c2)cc1Cl [Compound 434, 1-(1-acetylpiperidin-4-yl)-4-chloro-N-(5-(3-chloro-4-methoxyphenyl)-3-methylpyridin-2-yl)-1H-pyrazole-5-carboxamide]
8.11 µM	–	CCC(=O)N1CCOC(Cn2ncc(Cl)c2C(=O)Nc2ccc(OCc3ccccc3)cc2C)C1 (centres unmarked) [Compound 435]

Continued, molecule first:

SMILES	IC50	inhibition at 30 µM
COc1ncc(-c2cnc(NC(=O)c3c(Cl)cnn3C3CCN(C(C)=O)CC3)c(C)c2)cc1Cl [Compound 425, 1-(1-acetylpiperidin-4-yl)-4-chloro-N-(5′-chloro-6′-methoxy-5-methyl-[3,3′-bipyridin]-6-yl)-1H-pyrazole-5-carboxamide]	5.05 µM	–
CC(=O)N1CCC(n2ncc(Cl)c2C(=O)Nc2ncc(-c3cc(F)c(Cl)c(F)c3)cc2C)CC1 [Compound 426, 1-(1-acetylpiperidin-4-yl)-4-chloro-N-(5-(4-chloro-3,5-difluorophenyl)-3-methylpyridin-2-yl)-1H-pyrazole-5-carboxamide]	5.12 µM	–
COc1c(F)cc(-c2cnc(NC(=O)c3c(Cl)cnn3C3CCN(C(C)=O)CC3)c(C)c2)cc1F [Compound 428, 1-(1-acetylpiperidin-4-yl)-4-chloro-N-(5-(3,5-difluoro-4-methoxyphenyl)-3-methylpyridin-2-yl)-1H-pyrazole-5-carboxamide]	5.31 µM	–
Cc1cc(-c2cnn(-c3ccccc3F)c2)cnc1NC(=O)c1c(Cl)cnn1C1CCN(C(=O)OC(C)(C)C)CC1 [Compound 436, tert-butyl 4-(4-chloro-5-((5-(1-(2-fluorophenyl)-1H-pyrazol-4-yl)-3-methylpyridin-2-yl)carbamoyl)-1H-pyrazol-1-yl)piperidine-1-carboxylate]	9.3 µM	–
COc1cc(-c2cnc(NC(=O)c3c(Cl)cnn3C3CCN(C(=O)OC(C)(C)C)CC3)c(C)c2)ccn1 [Compound 437, tert-butyl 4-(4-chloro-5-((2′-methoxy-5-methyl-[3,4′-bipyridin]-6-yl)carbamoyl)-1H-pyrazol-1-yl)piperidine-1-carboxylate]	9.96 µM	–
CC(=O)N1CCC(CCn2cc(Cl)c(C(=O)Nc3ncc(C#Cc4cccc(F)c4)cc3C)n2)CC1 [Compound 439, 1-(2-(1-acetylpiperidin-4-yl)ethyl)-4-chloro-N-(5-((3-fluorophenyl)ethynyl)-3-methylpyridin-2-yl)-1H-pyrazol-3-carboxamide]	–	-163%
CC(=O)N1CCC(CCn2cc(Cl)c(C(=O)Nc3ncc(C#Cc4cccs4)cc3C)n2)CC1 [Compound 440, 1-(2-(1-actetylpiperidin-4-yl)ethyl)-4-chloro-N-(3-methyl-5-(thiophen-2-ylethynyl)pyridin-2-yl)-1H-pyrazole-3-carboxamide]	–	-135%
Cc1cc(C#Cc2ccccc2F)cnc1NC(=O)c1nn(CCC2CCN(C(=O)C3CC3)CC2)cc1Cl [Compound 441, 4-chloro-1-(2-(1-(cyclopropanecarbonyl)piperidin-4-yl)ethyl)-N-(5-((2-fluorophenyl)ethynyl)-3-methylpyridin-2-yl)-1H-pyrazole-3-carboxamide]	–	-123%
CC(=O)N1CCC(CCn2cc(Cl)c(C(=O)Nc3ncc(C#Cc4ccc(F)cc4)cc3C)n2)CC1 [Compound 442, 1-(2-(1-acetylpiperidin-4-yl)ethyl)-4-chloro-N-(5-((4-fluorophenyl)ethynyl)-3-methylpyridin-2-yl)-1H-pyrazole-3-carboxamide]	–	-118%
Cc1cc(C#Cc2ccccc2)cnc1NC(=O)c1nn(C2CCOCC2)cc1Cl [Compound 443, 4-chloro-N-(3-methyl-5-(phenylethynyl)pyridin-2-yl)-1-(tetrahydro-2H-pyran-4-yl)-1H-pyrazole-3-carboxamide]	–	-116%
Cc1cc(C#Cc2ccccc2)cnc1NC(=O)c1nn(CC2CCOCC2)cc1Cl [Compound 444, 4-chloro-N-(3-methyl-5-(phenylethynyl)pyridin-2-yl)-1-((tetrahydro-2H-pyran-4-yl)methyl)-1H-pyrazole-3-carboxamide]	–	-116%
CC(=O)N1CCC(CCn2cc(Cl)c(C(=O)Nc3ncc(C#Cc4ccccc4F)cc3C)n2)CC1 [Compound 445, 1-(2-(1-acetylpiperidin-4-yl)ethyl)-4-chloro-N-(5-((2-fluorophenyl)ethynyl)-3-methylpyridin-2-yl)-1H-pyrazole-3-carboxamide]	–	-115%
Cc1cc(C#Cc2ccc(F)cc2)cnc1NC(=O)c1nn(CCC2CCN(C(=O)C(C)C)CC2)cc1Cl [Compound 446, 4-chloro-N-(5-((4-fluorophenyl)ethynyl)-3-methylpyridin-2-yl)-1-(2-(1-isobutyrylpiperidin-4-yl)ethyl)-1H-pyrazole-3-carboxamide]	–	-108%
CC(=O)N1CCC(CCn2cc(Cl)c(C(=O)Nc3ncc(C#Cc4cccs4)cc3F)n2)CC1 [Compound 447, 1-(2-(1-acetylpiperidin-4-yl)ethyl)-4-chloro-N-(3-fluoro-5-(thiophen-2-ylethynyl)pyridin-2-yl)-1H-pyrazole-3-carboxamide]	–	-107%
